Assay results: patent US7214663B2, “Tripeptide prodrug compounds” (Medarex, Inc., priority 2001, dated 2007)
Non-standard residues stand in square brackets, D forms with d. Residues, ends and D or L forms follow the SMILES beside them. *: point of attachment. Daunorubicin = COc1cccc2c1C(=O)c1c(O)c3c(c(O)c1C2=O)C[C@@](O)(C(C)=O)C[C@@H]3O[C@H]1C[C@H](N*)[C@H](O)[C@H](C)O1; Sta = CC(C)C[C@H](N)[C@@H](O)CC(=O)O; pGlu = O=C1CC[C@@H](C(=O)O)N1; Isovaleryl = CC(C)CC(=O)*

Experiments:
carcinoma cell trouase = assay: Inhibitor profile of carcinoma cell trouase; assay type: biochemical, human
[1] = Metabolism and clearance of Suc-Leu-Ala-Leu-Dox in mice (plasma, urine); assay type: in vivo, mouse
Description: Plasma samples of 100 μl were transferred to microcentrifuge tubes (1.5 mL) and an internal standard of daunorubicin (20 μL at 0.5 mg/ml) was added together with acetonitrile (400 μl). The tubes were capped and briefly vortexed followed by centrifugation at 14,000 rpm. 420 μl from each tube was removed and dried in vacuo. Each sample was reconstituted in 65 μl 20 mM aqueous ammonium formate (AF) pH 4.5 buffer containing acetonitrile (20%) prior to analysis by reverse phase liquid chromatography in combination with tandem mass spectrometry (LC MS/MS).
Urine was collected at 2 and 24 hours post administration from pairs of mice in metabolic cages. Urine samples were diluted with AF buffer containing acetonitrile (20%) to give a target analyte concentration within the practical range of the LC MS/MS assay. 30 μl of each diluted sample was placed in a micro centrifuge tube (1.5 ml) and an internal standard of daunorubicin (20 μL at 0.5 mg/ml) was added together with 50 μl of AF buffer containing acetonitrile (20%). Each sample was then analyzed by LC MS/MS.
An Agilent HP1100 HPLC with DAD detector and Chemstation software was coupled to a PE Sciex API 365 mass spectrometer with an electrospray ion source. HPLC was performed on a TSK-Gel Super ODS, […], 4.6×50 mm (TosoHaas) reversed phase column equipped with a […] C18 guard disc (Higgins Analytical) and stainless steel frit (Upchurch Scientific). Chromatography was performed at room temperature. The flow rate was 0.5 ml/min. Injection volume was 50 μl. Gradient elution was performed using a mobile phase of AF buffer with increasing amounts of acetonitrile. The API 365 was operated at 365° C. in a multiple reaction monitoring mode, set to monitor specific analyte parent-daughter ion pairs. Integration of chromatograms was performed by MacQuan software (PE Sciex) and quantitation of each analyte obtained by comparison to previously obtained calibration curves. Daunorubicin was used as an internal standard in all cases.

[2] = Metabolism and clearance of Suc-Met-Ala-Leu-Dox in mice (plasma, urine); assay type: in vivo, mouse
Description: Plasma samples were obtained at 1 or 4 hours, and urine was collected at 2 and 24 hours post administration. Levels of the prodrug and metabolites were measured by LC-MS with UV detection of doxorubicin.

[3] = system: HeLa cell anion exchange fraction (F1), trouase; assay: Relative cleavage by HeLa cell anion exchange fraction (F1) versus Suc-βAla-Leu-Ala-Leu standard; assay type: biochemical, human; conditions: 2 hr at 37° C., 12.5 μg/mL, HeLa F1; relative to Suc-βAla-Leu-Ala-Leu-(Dox or Dnr) standard
Description: Thirty billion commercially produced HeLa Cells (human cervical carcinoma, Computer Cell Culture Ceizter, Seneffe, Belgium) were homogenized with a sonicator and with a Dounce homogenizer in 108 mL of aqueous lysis solution. The lysis solution contained 0.02% w/v Triton X-100, 0.04% w/v sodium azide, and a cocktail of protease inhibitors (2 tablets/50 mL Complete™, EDTA-free tablets, Roche Molecular Biochemicals). The cell homogenate was centrifuged 30 minutes at 4° C. at 5000×g and the pellet was homogenized in a second 108 mL of lysis solution using a Dounce homogenizer and centrifuged as before. The supernatants were combined and centrifuged for 90 min at 145,000×g at 4° C.
A portion of the ultracentrifugation supernatant was diluted 2-fold with a 20 mM triethanolamine-HCl pH 7.2 buffer containing 0.01% (w/v) Triton X-100 and 0.02% (w/v) sodium azide (equilibration buffer). Thirty mL of the resulting solution, corresponding to approximately 180 mg of protein, was loaded at 4° C. on a 2.6×9.4 cm Source™ 15Q (Amersham Pharmacia Biotech) low pressure anion exchange chromatography column (1 ml/minute). The column was then washed with 250 ml of the equilibration buffer at a flow rate of 1 mL/minute. Proteins were eluted in a NaCl linear concentration gradient (0–0.5 M in the equilibration buffer, total volume of the gradient was 1000 ml) at a flow rate of 3 ml/minute. Two-minute fractions were collected and used for enzyme activity determination using βAla-Leu-Ala-Leu-Dox as the substrate. Its transformation into Ala-Leu-Dox was quantified by reverse phase high performance liquid chromatography utilizing fluorescence detection of the anthracycline moiety. The fractions containing the highest activity levels were pooled (fractions #43–46; ˜0.13 M NaCl), supplemented with protease inhibitors (Complete™, EDTA-free tablets, Roche Molecular Biochemicals), and stored as aliquots at −80° C.
Test compounds were incubated for 2 hr at 37° C. at a concentration of 12.5 μg/mL with HeLa cell anion exchange fraction (F1), as prepared in Example 1(c). Following incubation, three volumes of acetonitrile were added to stop the reaction and remove protein from the mixture. The sample was centrifuged at 18,000 g for 5 minutes and 100 μL of supernatant was mixed with 300 μL of water prior to analysis by HPLC. For HPLC analysis 50 μL of sample was injected on a 4.6×50 mm 2μ TSK Super-ODS chromatography column at 40° C. and eluted with a 3 minute linear gradient from 26% to 68% acetonitrile in aqueous 20 mM ammonium acetate pH 4.5 buffer at 2 mL/min. Detection was by fluorescence using an excitation wavelength of 235 nm and an emission wavelength of 560 nm.
the amount of cleavage of each test compound was compared to the amount of a standard Suc-βAla-Leu-Ala-Leu-therapeutic agent conjugate cleaved by F1 under the same conditions. The therapeutic agent in the standard (Dox or Dnr) was the same as in the test compound. Table 3 provides the relative cleavage rates of several tripeptide prodrugs.

in vivo = conditions: female, ICR, mouse, iv, 100 umol/kg
Description: Plasma was obtained from three individual animals in each group at 5 minutes, 1, 2, 4, or 6 hr.

[4] = after single intravenous 117 mg/kg Suc-Leu-Ala-Leu-Dox
[5] = after single intravenous 120 mg/kg Suc-Met-Ala-Leu-Dox

Compound	inhibition of carcinoma cell trouase (carcinoma cell trouase)	Relative Cleavage % [3] [%]	further results
c1cnc2c(c1)ccc1cccnc12 [1,10-phenanthroline]	inhibited	–	–
COc1cccc2c1C(=O)c1c(O)c3c(c(O)c1C2=O)C[C@@](O)(C(=O)CO)C[C@@H]3O[C@H]1C[C@H](NC(=O)[C@H](CC(C)C)NC(=O)[C@H](C)N)[C@H](O)[C@H](C)O1 [Ala-Leu-Dox]	–	–	Plasma 1 hr, percent of administered dose ([1]; mouse, in vivo, iv, 117 mg/kg): 0.006%; Plasma 4 hr, percent of administered dose ([1]; mouse, in vivo, iv, 117 mg/kg): 0.000%; Urine 2 hr, percent of administered dose ([1]; mouse, in vivo, iv, 117 mg/kg): 0.02%; Urine 24 hr, percent of administered dose ([1]; mouse, in vivo, iv, 117 mg/kg): 0.01%; Plasma 1 hr, percent of administered dose ([2]; mouse, in vivo, iv, 120 mg/kg): 0.002%; Plasma 4 hr, percent of administered dose ([2]; mouse, in vivo, iv, 120 mg/kg): 0.000%; Urine 2 hr, percent of administered dose ([2]; mouse, in vivo, iv, 120 mg/kg): 0.16%; Urine 24 hr, percent of administered dose ([2]; mouse, in vivo, iv, 120 mg/kg): 0.02%
CCCNC(=O)[C@H]1O[C@@H]1C(=O)N[C@H](C(=O)N1CCC[C@H]1C(=O)O)[C@@H](C)CC [CA074]	not	–	–
CC(C)C[C@H](NC(=O)[C@H]1O[C@@H]1C(=O)O)C(=O)NCCCCN=C(N)N [Compound E64, E64]	not	–	–
COc1cccc2c1C(=O)c1c(O)c3c(c(O)c1C2=O)C[C@@](O)(C(=O)CO)C[C@@H]3O[C@H]1C[C@H](NC(=O)[C@@H](N)CC(C)C)[C@H](O)[C@H](C)O1 [Leu-Dox]	–	–	Plasma 1 hr, percent of administered dose [1, 4]: 0.019%; Plasma 4 hr, percent of administered dose [1, 4]: 0.001%; Urine 2 hr, percent of administered dose [1, 4]: 1.53%; Urine 24 hr, percent of administered dose [1, 4]: 0.45%; Plasma 1 hr, percent of administered dose [2, 5]: 0.022%; Plasma 4 hr, percent of administered dose [2, 5]: 0.001%; Urine 2 hr, percent of administered dose [2, 5]: 7.28%; Urine 24 hr, percent of administered dose [2, 5]: 1.25%; plasma level, times higher than Ala-Leu-Dox ([2]; at both 1 and 4 hours after 120 mg/kg Suc-Met-Ala-Leu-Dox): about 10 times
COc1cccc2c1C(=O)c1c(O)c3c(c(O)c1C2=O)C[C@@](O)(C(C)=O)C[C@@H]3O[C@H]1C[C@H](NC(=O)[C@H](CC(C)C)NC(=O)[C@H](C)NC(=O)[C@H](CC(C)C)NC(=O)[C@@H]2CCC(=O)N2)[C@H](O)[C@H](C)O1 [Pyg-Leu-Ala-Leu-Dnr] ([pGlu]LAL-Daunorubicin)	–	76	–
COc1cccc2c1C(=O)c1c(O)c3c(c(O)c1C2=O)C[C@@](O)(C(C)=O)C[C@@H]3O[C@H]1C[C@H](NC(=O)[C@H](CC(C)C)NC(=O)[C@H](C)NC(=O)[C@H](CC(C)C)NC(=O)CCC(=O)O)[C@H](O)[C@H](C)O1 [Suc-Leu-Ala-Leu-Dnr]	–	76	–
COc1cccc2c1C(=O)c1c(O)c3c(c(O)c1C2=O)CC(O)(C(C)=O)CC3OC1CC(NC(=O)C(CC(C)C)NC(=O)C(C)NC(=O)C(CCSC)NC(=O)CCC(=O)O)C(O)C(C)O1 (stereo not drawn) [Suc-Met-Ala-Leu-Dnr]	–	69	–
CCC(C)C(NC(=O)CNC(=O)C(CCSC)NC(=O)CCC(=O)O)C(=O)NC1CC(OC2CC(O)(C(C)=O)Cc3c(O)c4c(c(O)c32)C(=O)c2c(OC)cccc2C4=O)OC(C)C1O (stereo not drawn) [Suc-Met-Gly-Ile-Dnr]	–	46	–
COc1cccc2c1C(=O)c1c(O)c3c(c(O)c1C2=O)CC(O)(C(C)=O)CC3OC1CC(NC(=O)C(CC(C)C)NC(=O)CNC(=O)C(CCSC)NC(=O)CCC(=O)O)C(O)C(C)O1 (stereo not drawn) [Suc-Met-Gly-Leu-Dnr]	–	55	–
COc1cccc2c1C(=O)c1c(O)c3c(c(O)c1C2=O)C[C@@](O)(C(C)=O)C[C@@H]3O[C@H]1C[C@H](NC(=O)[C@H](Cc2ccccc2)NC(=O)CNC(=O)[C@H](CCSC)NC(=O)CCC(=O)O)[C@H](O)[C@H](C)O1 [Suc-Met-Gly-Phe-Dnr]	–	29	–
CCCCC(NC(=O)CCC(=O)O)C(=O)NCC(=O)NC(Cc1ccccc1)C(=O)NC1CC(OC2CC(O)(C(C)=O)Cc3c(O)c4c(c(O)c32)C(=O)c2c(OC)cccc2C4=O)OC(C)C1O (stereo not drawn) [Suc-Nle-Gly-Phe-Dnr]	–	17	–
CCC(C)C(NC(=O)CNC(=O)C(Cc1ccccc1)NC(=O)CCC(=O)O)C(=O)NC1CC(OC2CC(O)(C(C)=O)Cc3c(O)c4c(c(O)c32)C(=O)c2c(OC)cccc2C4=O)OC(C)C1O (stereo not drawn) [Suc-Phe-Gly-Ile-Dnr]	–	54	–
COc1cccc2c1C(=O)c1c(O)c3c(c(O)c1C2=O)CC(O)(C(C)=O)CC3OC1CC(NC(=O)C(CC(C)C)NC(=O)CNC(=O)C(Cc2ccccc2)NC(=O)CCC(=O)O)C(O)C(C)O1 (stereo not drawn) [Suc-Phe-Gly-Leu-Dnr]	–	24	–
COc1cccc2c1C(=O)c1c(O)c3c(c(O)c1C2=O)CC(O)(C(C)=O)CC3OC1CC(NC(=O)C(Cc2ccccc2)NC(=O)CNC(=O)C(Cc2ccccc2)NC(=O)CCC(=O)O)C(O)C(C)O1 (stereo not drawn) [Suc-Phe-Gly-Phe-Dnr]	–	12	–
CCC(C)C(NC(=O)C(C)NC(=O)C(Cc1ccc(O)cc1)NC(=O)CCC(=O)O)C(=O)NC1CC(OC2CC(O)(C(C)=O)Cc3c(O)c4c(c(O)c32)C(=O)c2c(OC)cccc2C4=O)OC(C)C1O (stereo not drawn) [Suc-Tyr-Ala-Ile-Dnr]	–	25	–
COc1cccc2c1C(=O)c1c(O)c3c(c(O)c1C2=O)CC(O)(C(C)=O)CC3OC1CC(NC(=O)C(CC(C)C)NC(=O)C(C)NC(=O)C(Cc2ccc(O)cc2)NC(=O)CCC(=O)O)C(O)C(C)O1 (stereo not drawn) [Suc-Tyr-Ala-Len-Dnr]	–	77	–
CC[C@H](C)[C@H](NC(=O)CCNC(=O)CCC(=O)O)C(=O)N[C@@H](C)C(=O)N[C@@H](CC(C)C)C(=O)N[C@H]1C[C@H](O[C@H]2C[C@](O)(C(=O)CO)Cc3c(O)c4c(c(O)c32)C(=O)c2c(OC)cccc2C4=O)O[C@@H](C)[C@H]1O [Suc-βAla-Ile-Ala-Leu-Dox]	–	–	AUC (in vivo): 326 µM·h
[Zn+2] [Zn^2+]	–	–	inhibition of hydrolysis of Suc-βAla-Leu-Ala-Leu-Dox by HeLa cell Fraction 1 (carcinoma cell trouase; 100 μM): completely inhibits
CO[C@@H]1[C@H](OC(=O)/C=C/C=C/C=C/C=C/C(=O)O)CC[C@]2(CO2)[C@H]1[C@@]1(C)O[C@@H]1CC=C(C)C [fumagillin]	not	–	–
CC(=O)N[C@@H](CC(C)C)C(=O)N[C@@H](CC(C)C)C(=O)N[C@H](C=O)CCCNC(=N)N [leupeptin]	not	–	–
CC(C)CC(=O)N[C@H](C(=O)N[C@H](C(=O)N[C@@H](CC(C)C)[C@@H](O)CC(=O)N[C@@H](C)C(=O)N[C@@H](CC(C)C)[C@@H](O)CC(=O)O)C(C)C)C(C)C [pepstatin] (Isovaleryl-VV[Sta]A[Sta]-OH)	not	–	–
aminoethylbenzene-sufonate	not	–	–
aprotinin	not	–	–
